Measurements from PMC7529893, “Structural basis for substrate recognition and chemical inhibition of oncogenic MAGE ubiquitin ligases” (Nature Communications, 2020).

Biological target: T1, MAGE-A11:PCF11 interaction (GST-MAGE-A11 and FAM-PCF11_4) (Homo sapiens, UniProt P43364)
T1 construct: GST-MAGE-A11 MHD (human MAGE-A11 MHD amino acid 218-429); made in house; host or cells: E. coli BL21(DE3)
T1 sequence (P43364 218-429): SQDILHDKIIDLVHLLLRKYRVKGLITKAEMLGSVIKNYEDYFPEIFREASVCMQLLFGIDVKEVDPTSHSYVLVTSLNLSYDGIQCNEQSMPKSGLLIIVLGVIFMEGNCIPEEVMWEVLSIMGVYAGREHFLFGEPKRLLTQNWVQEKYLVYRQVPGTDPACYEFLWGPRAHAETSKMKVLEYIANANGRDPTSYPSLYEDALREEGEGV
Assay: TR-FRET primary / single point screen at 15 µM
Format: binding
How it was run: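 TR-FRET 520/490 nm emission ratio was read after 90 min at room temperature. Wells held 5 nM GST-MAGE-A11, 5 nM Tb-anti-GST, 200 nM FAM-PCF11_4 and 15 µM compound in Tris pH 7.5 buffer with MgCl2, BSA and DTT. %Inhibition was scaled to DMSO and minus-MAGE-A11 controls.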

[1] = single point TR-FRET screening of quinoline compounds against MAGE-A11:PCF11, 15 µM
[2] = single point TR-FRET screening of 797 quinoline compounds against MAGE-A11:PCF11

| percent inhibition (TR-FRET) [1] | percent inhibition (TR-FRET) [2] | Compound | also measured |
| --- | --- | --- | --- |
| – | -146.701 | COc1ccc2nc3cc(Cl)ccc3c(NCCCNCc3cc4ccccc4o3)c2c1 [SJ000520997] | – |
| -82.146 | – | CCCN(CCCNc1c2ccc(Cl)cc2nc2ccc(OC)cc12)Cc1nc(C)cs1 [SJ000522966] | – |
| – | -427.368 | CCC(CC)CNCCCNc1c2ccc(Cl)cc2nc2ccc(OC)cc12 [SJ000361092] | – |
| – | -432.435 | COc1ccc2nc3cc(Cl)ccc3c(NCCCNCc3ccccc3)c2c1 [SJ000361086] | – |
| 18.7467 | – | CCCN(CCCNc1ccnc2cc(Cl)ccc12)Cc1ccc2c(c1)OCO2 [SJ000522753] | – |
| -21.3723 | – | CCCN(CCCNc1c2ccc(Cl)cc2nc2ccc(OC)cc12)CC(C)C [SJ000575150] | – |
| 96.845 | – | CCCN(CCCNc1ccnc2cc(Cl)ccc12)Cc1ccc2[nH]ccc2c1 [SJ000522746] | – |
| 0.9854 | – | COc1ccc2nc3cc(Cl)ccc3c(NCCCNCc3ccc[nH]3)c2c1 [SJ000361084] | – |
| 14.4758 | – | CCCN(CCCNc1ccnc2cc(Cl)ccc12)Cc1ccc(Br)o1 [SJ000311195] | – |
| 11.85 | – | CCCN(CCCNc1ccnc2cc(Cl)ccc12)Cc1scnc1C [SJ000523005] | – |
| – | -365.36 | COc1ccc2nc3cc(Cl)ccc3c(NCCCNCc3cc(F)ccc3OC)c2c1 [SJ000520993] | – |
| – | 19.0968 | CCCCCN(CCCCNc1ccnc2cc(Cl)ccc12)Cc1ccccc1 [SJ000361196] | – |
| -71.0252 | – | CCCN(CCCNc1c2ccc(Cl)cc2nc2ccc(OC)cc12)Cc1ccc(Cl)c([N+](=O)[O-])c1 [SJ000522738] | – |
| – | -408.98 | COc1ccc2nc3cc(Cl)ccc3c(NCCCNCc3cccnc3)c2c1 [SJ000520986] | – |
| -56.4502 | – | CCCN(CCCNc1c2ccc(Cl)cc2nc2ccc(OC)cc12)Cc1ccc(Br)s1 [SJ000520924] | – |
| – | -402.468 | COc1ccc2nc3cc(Cl)ccc3c(NCCCNCc3cccn3C)c2c1 [SJ000520985] | – |
| 5.6 | – | CCCN(CCCNc1ccnc2cc(C(F)(F)F)ccc12)Cc1cc(OC(F)(F)F)ccc1OC [SJ000520485] | – |
| – | 27.6387 | CCCCN(CCCCNc1ccnc2cc(Cl)ccc12)Cc1ccccc1 [SJ000357538] | – |
| -1.797 | – | CCCN(CCCNc1c2ccc(Cl)cc2nc2ccc(OC)cc12)Cc1ccncc1 [SJ000520918] | – |
| – | -257.115 | COc1ccc2nc3cc(Cl)ccc3c(NCCCNCc3cccc4c3OCO4)c2c1 [SJ000520991] | – |
| 6.2139 | – | CCCN(CCCNc1ccnc2cc(Cl)ccc12)Cc1ccoc1 [SJ000357442] | – |
| 5.864 | – | CCCN(CCCNc1ccnc2cc(Cl)ccc12)Cc1cc2ccccc2s1 [SJ000522993] | – |

Second part, the molecule before the results:

| Compound | percent inhibition (TR-FRET) [1] | percent inhibition (TR-FRET) [2] | also measured |
| --- | --- | --- | --- |
| Fc1ccc(CN(CCCNc2ccnc3cc(Cl)ccc23)Cc2ccccc2)cc1F [SJ000361174] | 27.5505 | – | – |
| Cc1ccc(S(=O)(=O)c2cnc3ccccc3c2N2CCN(C)CC2)cc1 [SJ000247268] | – | -13.5889 | – |
| CCc1nc2ccccc2c(NC(=O)CN2CCCCC2)c1C [SJ000111682] | – | 1.593 | – |
| CCCN(CCCNc1ccnc2cc(Cl)ccc12)CC1CCOC1 (centres unmarked) [SJ000523016] | 9.6638 | – | – |
| CCOC(=O)c1cnc2c(C)cc(C)cc2c1NCCN(C)C [SJ000037396] | – | 4.92 | – |
| CCOC(=O)c1cnc2c(CC)cccc2c1NCCCN1CCOCC1 [SJ000185196] | -4.499 | – | – |
| Cc1cc(C)cc(Cc2ccc3c(NCCCNCc4ccco4)ccnc3c2)c1 [SJ000311318] | 39.3055 | – | – |
| FC(F)(F)c1ccc2c(NCCCNCC3CCOC3)ccnc2c1 (centres unmarked) [SJ000521065] | 15.5598 | – | – |
| Cn1cccc1CNCCCNc1ccnc2cc(C(F)(F)F)ccc12 [SJ000521041] | -6.879 | – | – |
| CCCN(CCCNc1ccnc2cc(C(F)(F)F)ccc12)Cc1c(C)cc(C)cc1C [SJ000361264] | 19.9321 | – | – |
| O=S(=O)(c1ccc(Br)cc1)N1CCN(c2ccnc3cc(Cl)ccc23)CC1 [SJ000201754] | – | -16.7513 | – |
| Cc1ccc(S(=O)(=O)c2cnc3ccccc3c2N2CCN(c3cc(C)ccc3C)CC2)cc1 [SJ000117084] | – | 2.443 | – |
| c1ccc(Oc2ccc3c(NCCCNCc4ccco4)ccnc3c2)cc1 [SJ000311206] | 14.5885 | – | – |
| Clc1ccc2c(NCCCCN(Cc3ccccc3)Cc3ccncc3)ccnc2c1 [SJ000361190] | – | -9.945 | – |
| CCOc1ccc2ncc(S(=O)(=O)c3ccc(Cl)cc3)c(N3CCN(c4ccccc4)CC3)c2c1 [SJ000117054] | – | – | percent inhibition (TR-FRET) (single point TR-FRET screening of quinoline compounds against MAGE-A11:PCF11): -446.911 |
| CCCN(CCCNc1ccnc2cc(C(F)(F)F)ccc12)Cc1ccc(Cl)c(C(F)(F)F)c1 [SJ000521015] | 11.045 | – | – |
| CCOC(=O)c1cnc2c(C(F)(F)F)cccc2c1NCCCN1CCOCC1 [SJ000131358] | 10.0613 | – | – |
| CCCN(CCCNc1ccnc2cc(C(F)(F)F)ccc12)Cc1cc(C(F)(F)F)ccc1OC [SJ000520486] | 8.188 | – | – |
| COc1ccc(C(F)(F)F)cc1CN(CCCNc1ccnc2cc(Cl)ccc12)Cc1ccccc1 [SJ000520450] | 23.1782 | – | – |
| O=[N+]([O-])c1ccccc1-c1ccc(CNCCCNc2ccnc3cc(Cl)ccc23)o1 [SJ000523068] | 21.6545 | – | – |
| CSC(C)CCNCCCNc1ccnc2cc(C(F)(F)F)ccc12 (centres unmarked) [SJ000361125] | 24.4617 | – | – |
| CCOC(=O)c1cnc2c(C)cc(C)cc2c1NCCN1CCOCC1 [SJ000172983] | – | 8.869 | – |
| CCCN(CCCNc1ccnc2cc(C(F)(F)F)ccc12)Cc1ccccc1C(F)(F)F [SJ000361259] | 4.988 | – | – |
| CN(C)c1ccc(CN2CCC(Nc3ccnc4cc(Cl)ccc34)CC2)cc1 [SJ000523102] | – | 13.0905 | – |
| Cc1cc(NC(=O)CN[C@H]2CCN(Cc3cccc(F)c3)C2)c2ccccc2n1 [SJ000832581] | – | -1.278 | – |

| Compound | percent inhibition (TR-FRET) [1] | percent inhibition (TR-FRET) [2] | also measured |
| --- | --- | --- | --- |
| CCC(C)CNCCCNc1ccnc2cc(C(F)(F)F)ccc12 (centres unmarked) [SJ000361112] | 18.4697 | – | – |
| Clc1ccc2c(NCCCCN(Cc3ccccc3)Cc3ccccn3)ccnc2c1 [SJ000312690] | – | 9.5313 | – |
| CN(C)CCCNc1c2ccccc2nc2ccccc12 [SJ000044378] | 16.7674 | – | – |
| CCN1CCN(c2c(S(=O)(=O)c3ccccc3)cnc3ccc(Cl)cc23)CC1 [SJ000083960] | – | 4.43 | – |
| FC(F)(F)Oc1cccc(CN(CCCCNc2ccnc3cc(Cl)ccc23)Cc2ccccc2)c1 [SJ000520457] | – | 33.314 | – |
| COc1ccc2ncc(S(=O)(=O)c3ccc(C)c(C)c3)c(N3CCN(C)CC3)c2c1 [SJ000247333] | – | -8.554 | – |
| COc1ccc2ncc(S(=O)(=O)c3ccc(C)cc3)c(N3CCN(c4ccc(F)cc4)CC3)c2c1 [SJ000117059] | – | -118.524 | – |
| c1coc(CNCCCNc2ccnc3cc(-c4cccc5ccccc45)ccc23)c1 [SJ000311274] | 41.5719 | – | – |
| O=C(C[C@H]1CC[C@]2(CC1)OO[C@]1(O2)C2CC3CC(C2)CC1C3)NCCNc1ccnc2cc(Cl)ccc12 [SJ000578361] | – | 28.0142 | – |
| Cc1ccc(S(=O)(=O)c2cnc3ccc(F)cc3c2N2CCN(c3ccc(F)cc3)CC2)cc1 [SJ000117061] | – | -70.4952 | – |
| CCCN(CCCNc1ccnc2cc(C(F)(F)F)ccc12)Cc1ccc2[nH]ccc2c1 [SJ000575171] | 32.8899 | – | – |
| CCCCCCN(CCC)CCCNc1ccnc2cc(C(F)(F)F)ccc12 [SJ000523083] | 34.9477 | – | – |
| COc1ccc(N2CCN(c3c(S(=O)(=O)c4ccc(C)cc4)cnc4ccc(Cl)cc34)CC2)cc1 [SJ000117072] | – | -5.838 | – |
| Cc1cccc(CN(CCCNc2ccnc3cc(Cl)ccc23)Cc2ccccc2)c1 [SJ000361183] | 6.02 | – | – |
| CCc1ccc(S(=O)(=O)c2cnc3ccccc3c2N2CCN(c3ccccc3)CC2)cc1 [SJ000117053] | – | -21.2074 | – |
| CCOC(=O)c1ccc2ncc(C(=O)OCC)c(NCCN3CCOCC3)c2c1 [SJ000031347] | – | 0.6542 | – |
| Fc1ccccc1CN1CCC(Nc2ccnc3cc(Cl)ccc23)CC1 [SJ000523091] | – | -0.9977 | – |
| CCN(CC)CC(=O)Nc1c2c(nc3ccccc13)CCC2 [SJ000049655] | – | 0.6542 | – |
| CCCN(CCCNc1ccnc2cc(C(F)(F)F)ccc12)CCCc1ccccc1 [SJ000523080] | 28.0024 | – | – |
| Cc1cc(C)c(CN(CCCCNc2ccnc3cc(Cl)ccc23)Cc2ccccc2)c(C)c1 [SJ000361193] | – | 26.0268 | – |
| FC(F)(F)Oc1ccc(CN(CCCCNc2ccnc3cc(Cl)ccc23)Cc2ccccc2)cc1 [SJ000520451] | – | 39.8725 | – |
| CCCCCCN(CCC)CCCNc1ccnc2cc(Cl)ccc12 [SJ000523048] | 1.317 | – | – |
| CCCN(CCCNc1ccnc2cc(C(F)(F)F)ccc12)Cc1cc(F)cc(F)c1O [SJ000521012] | 14.997 | – | – |
| FC(F)(F)c1cc(CN(CCCCNc2ccnc3cc(Cl)ccc23)Cc2ccccc2)ccc1Cl [SJ000520466] | – | 25.2787 | – |
